Laboratory results from PubChem BioAssay (NCI).
“And” between values parts separate entries of the source, which are not always exact repeats. Identical values can stand only once.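 Results reflect a 48-hour exposure of cells in 96-well plates to compound at five concentrations. Abbreviation: GI50, concentration required for 50% inhibition of growth. TGI: concentration producing complete growth inhibition.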 *1 amine or outer side, *2 acyl side, *3 side chain or, on linkers, in order; H or OH if unused. Where a SMILES comes first, the peptide text is derived from it. Bridges are numbered along the chain shown (N, C = ends). [ ]: non-standard residue; d: D form. The star is where a group is joined. Phe(3-Me) = Cc1cccc(C[C@H](N)C(=O)O)c1; NH(4-Cl-2-F-phenyl) = Fc1cc(Cl)ccc1N*; Pro(4R-Me) = C[C@H]1CN[C@H](C(=O)O)C1; Hyp = O=C(O)[C@@H]1C[C@@H](O)CN1; aThr = C[C@H](O)[C@H](N)C(=O)O; Pip = O=C(O)[C@@H]1CCCCN1; CO = O=C([*:1])[*:2]

These molecules were tested on MDA-MB-468 breast (assay: NCI-60 cell line screen, 48 h).
In the case of `Cc1c(Cl)cccc1NC(=O)c1sc2nc3c(cc2c1N)CCCCCC3`, the GI50 is reported as 0.13 µM and the TGI is reported as 19.9 µM. With `COc1cc(-c2cc(-c3nc4ccccc4[nH]3)[nH]n2)cc(OC)c1OC` the GI50 was 0.935 µM and the TGI was 16.6 µM. With `COc1ccc(C(=O)/C=C/c2cc(C(=O)c3cc(OC)c(OC)c(OC)c3)ccc2OC)cc1` the GI50 was 3.03 µM and the TGI was over 100 µM. With `CCOc1cc2ncc(C#N)c(Nc3ccc(F)c(Cl)c3)c2cc1NC(=O)/C=C/CN(C)C` the GI50 was 0.00238 µM and the TGI was 0.0351 µM. For `CCN(CC)CCCC(C)Nc1cnc(C(=O)Nc2cc(F)cc3cccnc23)cn1` (centres undefined), the GI50 was 2.83 µM and 0.327 µM. With `O=c1[nH]nc2c3c(cccc13)NC(CN1Cc3ccccc3C1)=N2` the GI50 was 7.92 µM and the TGI was over 100 µM. With `O=C(Nc1ccc(Nc2ccncc2)cc1)c1ccc(Nc2ccnc3ccc([N+](=O)[O-])cc23)cc1` the GI50 was over 100 µM and the TGI was over 100 µM. `CC1(C)N=C(N)N=C(N)N1c1cccc(CCCCc2ccc(S(=O)(=O)F)cc2Cl)c1` gave a GI50 of 2.13 µM and a TGI of 18.8 µM. For `O=C1Nc2cc(OC(F)(F)F)ccc2Oc2ccc(-c3ccnc(N4CCNCC4)c3)cc21`, the GI50 was 0.394 µM and the TGI was 1.46 µM. `CCc1ccc(CCC(=O)Nc2ncc(Cc3ccccc3)s2)o1` showed a GI50 of 1.55 µM and a TGI of over 100 µM. In the case of `O=C1CNc2cc(N3CCN(c4cccc(C(F)(F)F)c4)CC3)ccc2N1`, the GI50 is reported as 4.92 µM and the TGI is reported as 43.6 µM. `Cc1nc(NC(=S)Nc2ccc(F)cc2)sc1C(=O)NNC(=S)Nc1ccc(F)cc1` showed a GI50 of 2.22 µM and a TGI of 9.53 µM. In the case of `CO/N=C1/NC(=O)/C(=C/c2ccc3ncccc3c2)S1`, the GI50 is reported as 4.91 µM and the TGI is reported as over 25 µM. In the case of `Cc1ccc(NS(=O)(=O)c2cc(C)ccc2C)cc1`, the GI50 is reported as 1.42 µM and the TGI is reported as 7.28 µM. With `Nc1ncc(-c2ccc(C(F)(F)F)cc2)c(NC2CCCCCC2)n1` the GI50 was 4.15 µM and the TGI was over 100 µM. Work on `COc1cccc(/C=C/C(=O)c2cc3c(N)c(C(=O)Nc4cccc(Cl)c4C)sc3nc2C)c1` yielded a GI50 of 0.778 µM and a TGI of 1.82 µM. `O=C(O)c1ccc(NS(=O)(=O)c2cccc3cccnc23)cc1` showed a GI50 of over 100 µM and a TGI of over 100 µM. Molecule `COc1ccc(C2c3cc4c(cc3OC(N3CCOCC3)C2C)OCO4)c(OC)c1` (centres undefined) has a GI50 of 7.18 µM and a TGI of 32 µM. `Cc1nn2c(/C=C3/C(=O)Nc4ccc(Cl)cc43)c(-c3ccccc3)nc2s1` showed a GI50 of 3.47 µM and a TGI of 14.7 µM. In the case of `C#CC[C@H](c1nc2cc(Cl)ccc2c(=O)n1Nc1ccccc1)N(CCCN)C(=O)c1cccc(Cl)c1F`, the GI50 is reported as 0.0421 µM and the TGI is reported as 0.755 µM. `O=[N+]([O-])c1cc(Br)cc2c1[nH]c1ccc(Br)cc12` showed a GI50 of 7.52 µM and a TGI of 79.7 µM. `Cc1cccc(C[C@H](NC(=O)Nc2ccc(Cl)cc2F)C(=O)N[C@@H]2C(=O)N3C[C@H](O)C[C@H]3C(=O)N3CCCC[C@H]3C(=O)N[C@@H](C)C(=O)N3C[C@H](C)C[C@H]3C(=O)O[C@H]2C)c1` ({NH(4-Cl-2-F-phenyl)-CO}-[Phe(3-Me)][aThr][Hyp][Pip]A[Pro(4R-Me)]; ester 2-C) showed a GI50 of 0.253 µM and a TGI of 1.03 µM. `CN(C)CC#Cc1cccc(C(=O)c2cnn(-c3ccc(F)cc3)c2N)c1` gave a GI50 of 13.3 µM and a TGI of over 25 µM. `COc1ccc(Cn2cc3c(c2-c2cc(OC)c(OC)c(OC)c2)CCc2c(CN4CCCC4)noc2-3)cc1` gave a GI50 of 0.28 µM and a TGI of 0.966 µM. With `Cc1c(CN2CCC(Nc3ncnc4sc(CC(F)(F)F)cc34)CC2)ccc2c1cc(C#N)n2Cc1cn[nH]c1` the GI50 was 0.842 µM and 0.781 µM and the TGI was 3.82 µM and 6.25 µM. Work on `O=C(Nc1ccncc1)C(=O)c1cn(S(=O)(=O)c2ccccc2F)c2ccccc12` yielded a GI50 of 1.51 µM and a TGI of 9.81 µM. Work on `CN1CCN(Cc2ccc(NC(=O)c3[nH]ncc3Nc3ncnc4c3CCC4)cc2)CC1` yielded a GI50 of 2 µM and a TGI of 5.84 µM. `O=C(c1cc(-c2cc3c(cc2C(=O)N2Cc4ccccc4C[C@H]2CN2CCOCC2)OCO3)n2c1CCCC2)N(c1ccccc1)c1ccc(O)cc1` gave a GI50 of 3.07 µM and a TGI of 96.2 µM. With `C[C@@H]1CCN(C(=O)CC#N)C[C@@H]1N(C)c1ncnc2[nH]ccc12` the GI50 was over 100 µM and the TGI was over 100 µM. `O=C(NNc1nc2cc(F)c(F)cc2n2c(CN3CC4CNCC4C3)ccc12)c1ncccn1` (centres undefined) was tested, and the GI50 was 2.04 µM and the TGI was 9.82 µM.
